How the values were obtained:
[1] = test system: Human keratinocytes; assay: Gap closure after scratch, migration of human keratinocytes; type: cell-based; settings: 100 ppm Arginine in DMEM
Method: Human keratinocytes are cultured in DMEM medium supplemented with 10% FBS and 1% of antibiotic at 37° C. under a 5% CO2 atmosphere in petri dishes. Once the cells are 80-90% confluent, a scratch is made horizontally and a scratch is made vertically across the layer of cells. 1 ml of a test solution is added to the culture, and the cells are further incubated and monitored by photomicroscopy to evaluate the closure of the gap created by the scratches. The test solutions compared are 100 ppm Arginine in DMEM medium and untreated DMEM medium. The results are shown in Table 3 below, expressed as the average width of the gap as a percentage of the initial width of the gap (at 0 hours).
A second gap closure experiment is also performed which compares the results obtained when 100 ppm Arginine in DMEM is used against 1:500 v/v dilutions of commercial mouthwash formulations. In one test, a 0.8% w/v arginine mouthwash formulation is used. In a second test, a 0.075% w/v cetylpyridinium chloride (CPC) mouthwash formulation is used as a negative control. CPC is common antibacterial agent and preservative used in oral care products.

[2] = test system: HSP 27; assay: HSP 27 production in scratched (damaged) human gingival tissue, level in cell supernatant; type: cell-based; settings: for HSP27 concentration: scratched gingival tissue, arginine 50 ppm in culture medium, 37° C.
Method: A scratching protocol was used to damage and stress human gingival tissue (MatTek Corporation). Arginine, at a dose of 50 ppm was applied to the culture medium containing the tissue. The treated tissue was incubated at 37° C. to promote tissue healing. Cell supernatant was collected at various time points and the level of HSP 27 was measured.

[3] = test system: HSP-27; assay: Intracellular HSP 27 expression in scratched keratinocytes (ELISA); type: cell-based, human; settings: for HSP-27, intracellular: scratched keratinocytes, 50 ppm Arginine
Method: Human keratinocytes are cultured in DMEM medium supplemented with 10% FBS and 1% of antibiotic at 37° C. under a 5% CO2 atmosphere in petri dishes. Once the cells are 80-90% confluent, a scratch is made horizontally and a scratch is made vertically across the layer of cells. […] […] The cell suspension is then homogenized with metal beads for 5 minutes and then analyzed for HSP27 using ELISA. In both untreated and arginine treated cells, scratching induces a strong increase in intracellular HSP-27 expression at one hour which declines at 4 hours. […] Without being bound by theory, Applicants believe that it is this initial burst of HSP-27 expression at the time of physical injury that contributes to improved wound healing.

N=C(N)NCCCC(N)C(=O)O (stereo not shown) [Arginine, 2-amino-5-guanidinopentanoic acid]
speed of gap closure compared to the DMEM control [1]: significantly faster | % Gap Closure ([1]; 24 hr after scratch): 21% | % Gap Closure ([1]; 48 hr after scratch): 63% | % Gap Closure ([1]; 144 hr after scratch): 100% | % Gap Closure ([1]; second experiment, 48 hr): 75% | production of HSP 27 compared to the untreated, scratched tissue ([2]; arginine 50 ppm, at 1 hour and at 4 hours): significantly accelerated | HSP27 concentration ([2]; incubation time 0 hr): 22.78 ng/mL | HSP27 concentration ([2]; incubation time 1 hr): 218.76 ng/mL | HSP27 concentration ([2]; incubation time 4 hr): 359.72 ng/mL | intracellular HSP-27 expression compared to untreated scratched cells ([3]; 50 ppm arginine): significantly higher expression | HSP-27, intracellular ([3]; time 0 hr): 17.11 ng/mL | HSP-27, intracellular ([3]; time 1 hr): 64.04 ng/mL | HSP-27, intracellular ([3]; time 2 hr as printed in the table): 45.12 ng/mL

Reference: patent US12465791B2, “Oral care composition” (Colgate-Palmolive Company, priority 2014, dated 2025)
